Results as given in patent US5811465A, “Composition, device, and method for electrotransport agent delivery” (priority 1997, dated 1998).
Read-outs that look alike come from different tables or passages of the source. Values belong to the molecule of their own block, whether it stands above or below them.

Columns and labels:
[1] = for Normalized Ketoprofen Flux (after 5 hrs): control = 1.00, 100 μA/cm^2, about 32° C.
Procedure: (§1) Human cadaver skin was prepared by first removing about 1 mm thick skin samples with an electric dermatome in the form of strips. The skin strips were placed in polyethylene bags, sealed and placed in a refrigerator at about 4° C. for temporary storage. Prior to use in the electrotransport cell, the skin strips were placed in one-liter beakers containing water at 60° C. for about 90 seconds with gentle stirring. Then, the skin strips were removed and placed onto the absorbent side of a piece of BENCHKOTE™ fabric with the dermis side down. Using flat tipped tweezers to retain the dermis, the epidermis was removed from each strip with a round-tip spatula. Each epidermis, stratum comeum side up, was transferred to a PYREX™ glass tray which was filled with water. Each floating epidermis was stretched essentially flat. After removal from the water 2.22 cm (7/8 in.) diameter disks of each epidermis were punched out of areas having negligible surface damage. The disks were stored at 4° C. in a sealed container with water droplets to maintain their moisture.
(§2) The human cadaver epidermis disks were mounted between compartments 44 and 46 of the electrotransport permeation cell shown in FIG. 2. The cell was comprised of a polycarbonate support structure 52, including O-ring seals 54, and the assembly was held together with stainless steel bolt and nut 56. The human skin disk 42 separated the anodic compartment 44 and the cathodic compartment 46. A silver anode 48 was placed adjacent to the anodic compartment 44, and a silver chloride cathode 50 was placed adjacent to the cathodic compartment 46. The area of the human skin disk 42 exposed for transport was about 1.26 cm^2 and the volume of each of compartments 44 and 46 was about 2 ml. The electrodes 48, 50 were electrically connected to a galvanostat (not shown in FIG. 2), which can be set to apply the voltage necessary to achieve a constant predetermined level of electric current. The galvanostat was set to apply a current of 126 μA, ie, 100 μA/cm^2 across electrodes 48, 50 throughout each test.
(§3) Dulbecco's phosphate buffered saline (about 0.15M NaCl with minor amounts of other ions, pH 7.0) was placed in the anodic receptor compartment 44. The skin resistance was calculated from the voltages applied by the galvanostat according to Ohm's law, ie, Rskin =ΔV/i, where ΔV is the potential applied by the galvanostat, and i is the applied current, 126 microamps.
(§4) The system was maintained at about 32° C. by a Haake Model D1 heating block/water bath. The cell voltage was monitored over the entire procedure, and then averaged. The skin resistance was calculated from Ohm's law as described above using the measured ΔV.
(§5) The samples were automatically taken from the receptor compartment every one to two hours, except for overnight experimentation, with an Isco Model 2230 autosampler and a metering pump. […] Each run was conduced in triplicate, including the control, to minimize error. All cells were set up with tissue from the same cadaver. The selected permeation enhancer was placed in the donor compartment, while the control cell's donor compartment contained no enhancer.
(§6) Thus, the flux control and the skin conductivity control were each assigned a value of 1, and the flux/conductivity values obtained after addition of each permeation enhancer to the donor solution are normalized to the control.

[2] = Electrical conductivity of human cadaver skin during electrotransport with permeation enhancer (Example 1); details: for Normalized Skin Conductivity (after 5 hrs): control = 1.00, 100 μA/cm^2, about 32° C.; for enhancement (skin conductivity), in words: comparison among tested enhancers, with/without ethanol
Procedure: as §1, §2, §3, §4, §5, §6

[3] = Water solubility of permeation enhancer; assay type: physicochemical; details: at about 20° C.
[4] = 25 mM enhancer in 20% Ethanol, pH 7.05
[5] = 25 mM enhancer, without ethanol, pH 6.90
[6] = 1,2-dodecane diol with vs without ethanol
[7] = 10 mM enhancer in 20% Ethanol, pH 7.30 (ODAA), 7.00 (A3)
[8] = 10 mM enhancer, without ethanol, pH 7.20 (DMDDA), 6.90 (DDPDCl)

Molecule: CCCCCCCCCCC(O)CO (stereo not shown) [1,2-Dodecanediol, 1,2-dodecane diol]
Normalized Ketoprofen Flux (after 5 hrs) [1, 4]: 1.95
Normalized Ketoprofen Flux (after 5 hrs) [1, 5]: 1.99
effect of ethanol as solvent on ketoprofen flux [1, 6]: did not affect ketoprofen flux
ketoprofen flux enhanced, relative to control value (in words) ([1]; addition of 1,2-dodecane diol): about double
enhancement (flux), in words ([1]; ketoprofen flux, comparison among tested enhancers, with/without ethanol): effective for enhancing both flux and skin conductivity in the presence and in the absence of ethanol
Normalized Skin Conductivity (after 5 hrs) [2, 4]: 6.81
Normalized Skin Conductivity (after 5 hrs) [2, 5]: 5.69
increase in skin conductivity by presence of ethanol [2, 6]: about 20%
enhancement of skin conductivity relative to the other permeation enhancers ([2]; alone without ethanol): more than double
enhancement (skin conductivity), in words [2]: effective for enhancing both flux and skin conductivity in the presence and in the absence of ethanol
water solubility [3]: greater than 25 mM

Normalized Ketoprofen Flux (after 5 hrs) [1, 7]: 1.76
Molecule: CCCCCCCCCCCC(=O)OCCCn1ccn(C)c1=O [A3, 1-methyl-4-imidazoline-2-one-3-propylenedodecanoate]
Normalized Skin Conductivity (after 5 hrs) [2, 7]: 5.93

Molecule: CCCCCCCCCCCCN(C)C [DMDDA, N,N-dimethyl-dodecylamine]
Normalized Ketoprofen Flux (after 5 hrs) [1, 8]: 1.37
Normalized Skin Conductivity (after 5 hrs) [2, 8]: 2.71

enhancement (flux), in words [1]: greatest enhancement
Molecule: CCCCCCCCCCCCO [Dodecanol, dodecanol]
Normalized Skin Conductivity (after 5 hrs) [2, 4]: 34.7
enhancement (skin conductivity), in words [2]: greatest enhancement

Molecule: octyl-N,N-dimethyl-dodecylamino acetate [ODAA]
Normalized Skin Conductivity (after 5 hrs) [2, 7]: 4.61
